Measurements from US12285393B2, “Roles of modulators of intersectin-Cdc42 signaling in Alzheimer's disease” (priority 2017, dated 2025).
Peptide text beside a SMILES is read from it. * marks the point of attachment. Trt = c1ccc(C(c2ccccc2)(c2ccccc2)*)cc1; Cbz = O=C(OCc1ccccc1)*; NHNH2 = NN*

Target: Cdc42 (Homo sapiens, UniProt P60953)
Assay: Cdc42-GEF-assay, additional compound screening
Format: biochemical
Set-up: purchased Cytoskeleton Inc
Details: for % ZCL367 (inhibitor activity): percentages of ZCL367 normalized to batch, less than 100% = more potent inhibitor; for % ZCL278 (with GEF): assay slope relative to ZCL278, normalized to batch; for % ZCL278 (without GEF): baseline slope relative to ZCL278, normalized to batch; for % ZCL278 (activator activity): percentages of ZCL278 activity normalized to batch, more than 100% = more potent activator, Table 9
Procedure: Rho-GEF IC50 Assay: Rho-GEF assay (Cytoskeleton Inc., Denver, Colorado, United States of America) was conducted per manufacturer's instructions (λex=360 nm, λem=460 nm). Briefly, a solution (50 μL) of purified Rho GTPase (1 μM) and mant-GTP (1.5 μM) with or without compound (0.001-500 μM) was prepared and the absorbance monitored for 10-30 min to obtain the background/baseline. The addition of purified GEF/DH domain (0.08-0.2 μM) was carried out simultaneously and the absorbance was recorded for 30-45 min. The linear slope following the addition of the GEF was calculated and expressed as percentage of the control and plotted on an IC50 curve.
Cdc42 (1 μM) was incubated with mant-GTP (1.5 μM) and varying concentrations of ZCL278, ZCL279, or ZCL367 (5-500 μM). Fluorescent readings were taken every minute for 10 m to acquire the baseline. The GEF/DH domain (0.08-0.2 μM) was added followed by readings taken every minute for another 30 m. The linear phase was calculated from within the time period of 12-22 m. Cdc42 (1 μM) was incubated with mant-GTP (1.5 μM) and varying concentrations of ZCL278, ZCL279, or ZCL367 (5-500 μM). Fluorescent readings were taken every minute for 30 m to monitor the binding of mant-GTP in the absence of GEF/DH domain.
Cdc42-GEF-assays were conducted on additional screening compounds in batches of 9 compounds per batch as described above in Example 2 using ZCL278 and ZCL367 as standards. Screening compounds were taken from the Specs Chemistry Database of 197,000 compounds for small molecule or the National Cancer Institute Compound Library. […] These compounds promote Cdc42-mantGTP binding without GEF. It is possible that these compounds can inhibit Cdc42-mantGTP binding with GEF. […] These compounds appear to have activity like ZCL279. […] However, upon the addition of GEF, the compounds appear to facilitate the binding of mantGTP to Cdc42 (high assay slope, relative to ZCL278)

Cdc42, sequence (P60953 whole entry): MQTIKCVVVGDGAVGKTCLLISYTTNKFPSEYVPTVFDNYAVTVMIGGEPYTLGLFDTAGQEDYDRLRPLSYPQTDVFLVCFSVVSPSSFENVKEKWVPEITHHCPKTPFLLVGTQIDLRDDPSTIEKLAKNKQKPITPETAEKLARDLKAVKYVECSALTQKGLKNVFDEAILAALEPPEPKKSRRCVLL

How did the “% ZCL367 (inhibitor activity)” value turn out when `NC(=O)c1[nH]nc(C2OC(CO)C(O)C2O)c1O` (stereo not drawn) [NSC143095] was run?
The value was 62.98%.

Which “% ZCL367 (inhibitor activity)” value does the source give for `O=c1c2ccccc2nc(/C=C/c2c(O)ccc3ccccc23)n1-c1ccc(O)cc1` [ZCL1111] here?
The value was 109.35%.

`O=C(Nc1ccc(S(=O)(=O)Nc2cccc3ccccc23)cc1)Nc1cccc(Cl)c1` [ZCL1127] was tested. Which “% ZCL367 (inhibitor activity)” value did it give?
The value was 98.5%.

What does the source list for `CC1(C)OC2COC(c3[nH]nc(C(N)=O)c3C(=O)N=[N+]=[N-])C2O1` (stereo not drawn) [NSC136024]?
% ZCL278 (with GEF): 82.316%; % ZCL278 (without GEF): 20.812%

`CC1(C)OCC(C2OC(O)C3OC(C)(C)OC32)O1` (stereo not drawn) [NSC25268] was tested. Which “% ZCL367 (inhibitor activity)” value did it give?
The value was 64.92%.

With `NC(=O)c1ccsc1NC(=O)c1cc(-c2cccc(Br)c2)nc2ccc(Cl)cc12` [ZCL1125] as the compound, how does the “% ZCL367 (inhibitor activity)” value read?
Its value is 28.67%.

How did the “% ZCL367 (inhibitor activity)” value turn out when `Cc1c2oc3c(C)ccc(C(=O)NC(C(N)=O)C(C)O)c3nc-2c(C(=O)NC(C(N)=O)C(C)O)c(N)c1=O` (stereo not drawn) [NSC407188] was run?
The value was 70.58%.

For `C[C@H](Oc1cccc(Cl)c1)C(=O)Nc1ccccc1NC(=O)[C@H](C)Oc1cccc(Cl)c1` [ZCL1120], which “% ZCL367 (inhibitor activity)” value is on record?
The value was 81.19%.

`c1ccc(-c2nc3c(c(NCc4cn5ccsc5n4)n2)CCNC3)cc1` [ZCL1144] was tested. Which “% ZCL278 (activator activity)” value did it give?
Its value is 454.3%.

Which “% ZCL367 (inhibitor activity)” value does the source give for `O=C1C2C(C(=O)N1/N=C/c1c(O)ccc3ccccc13)[C@H]1C=CC2C12CC2` (stereo partly drawn) [ZCL1107] here?
The value was 62.37%.

How did the “% ZCL367 (inhibitor activity)” value turn out when `O=C(CCCN1C(=O)/C(=C2\SC(=S)N(CCCC(=O)Nc3ccccc3O)C2=O)SC1=S)Nc1ccccc1O` [ZCL1110] was run?
The value was 104.15%.

For `O=C1/C(=C/c2ccc(O)c(O)c2)SC(=S)N1Nc1ccccc1` [ZCL1109], which “% ZCL367 (inhibitor activity)” value is on record?
Its value is 55.74%.

With `c1ccc(-c2nc3c(c(NCc4cn5ccsc5n4)n2)CCNC3)cc1` [ZCL1143] as the compound, how does the “% ZCL278 (with GEF)” value read?
Its value is 96.811%.

What about the “% ZCL278 (without GEF)” value of the same compound?
The value was 45.056%.

How did the “% ZCL278 (activator activity)” value turn out when `NC(=O)CCN(Cc1ccccc1)C(=O)Nc1cccc(OC2CCCC2)c1` [ZCL1139] was run?
The value was 100.29%.

And the “% ZCL367 (inhibitor activity)” value?
The value was 88.55%.

With `O=C(c1ccccc1O)N1CCOc2c(O)cc(-c3nc4ccccc4s3)cc2C1` [ZCL1142] as the compound, how does the “% ZCL278 (with GEF)” value read?
The value was 98.499%.

What about the “% ZCL278 (without GEF)” value of the same compound?
Its value is 69.001%.

With `NC1C=CN(C2OC(CO)C(O)C2O)C(=O)N1O` (stereo not drawn) [NSC128731] as the compound, how does the “% ZCL278 (activator activity)” value read?
The value was 108.28%.

Which “% ZCL367 (inhibitor activity)” value does the source give for `O=C(CCCN1C(=O)/C(=C2\SC(=S)N(CCCC(=O)Nc3ccccc3O)C2=O)SC1=S)Nc1ccccc1O` [ZCL1100] here?
The value was 29.97%.

`O=C(C(=O)N1CCC(O)(CO)CC1)c1c(-c2ccccc2)cc2ccccn12` [ZCL1137] was tested. Which “% ZCL367 (inhibitor activity)” value did it give?
Its value is 93.54%.

How did the “% ZCL367 (inhibitor activity)” value turn out when `NC(=O)c1cc([N+](=O)[O-])ccc1NCCN1C(=O)C2C(C1=O)[C@H]1C=C[C@@H]2C1` (stereo partly drawn) [ZCL1118] was run?
Its value is 46.77%.

`OCCNC[C@H](O)Cn1c(-c2ccccc2)c(-c2ccccc2)c2ccc3ccccc3c21` [ZCL1115] was tested. Which “% ZCL367 (inhibitor activity)” value did it give?
The value was 27.33%.

`NNC(=O)C(Cc1cnc[nH]1)NC(=O)CNC(=O)C(CSC(c1ccccc1)(c1ccccc1)c1ccccc1)NC(=O)OCc1ccccc1` (stereo not drawn) [NSC129911] (Cbz-Cys(Trt)-Gly-His-NHNH2; configuration not given here) was tested. Which “% ZCL278 (with GEF)” value did it give?
Its value is 96.611%.

What about the “% ZCL278 (without GEF)” value of the same compound?
Its value is 31.919%.

For `O=c1[nH]cc(C2OCC(O)C(O)C2O)c(=O)[nH]1` (stereo not drawn) [NSC94024], which “% ZCL278 (with GEF)” value is on record?
The value was 96.844%.

What about the “% ZCL278 (without GEF)” value of the same compound?
Its value is 34.327%.

How did the “% ZCL367 (inhibitor activity)” value turn out when `CCCCCn1c(O)c(C(=O)Nc2ccccc2S(N)(=O)=O)c(=O)c2ccccc21` [ZCL1105] was run?
Its value is 3.42%.

Which “% ZCL278 (with GEF)” value does the source give for `Cc1cn(C2OC(C(O)C(N)=O)C(O)C2O)c(=O)[nH]c1=O` (stereo not drawn) [NSC111600] here?
The value was 185.829%.

And the “% ZCL278 (without GEF)” value?
Its value is 9.098%.

With `O=C(CSCc1ccccc1)Nc1ccc(C(=O)O)cc1NC(=O)CSCc1ccccc1` [ZCL1117] as the compound, how does the “% ZCL367 (inhibitor activity)” value read?
The value was 74.15%.

What does the source list for `CC(=O)Nc1ccc(Nc2nc(-c3ccc(O)cc3)cs2)cc1` [ZCL1124]?
% ZCL278 (with GEF): 97.542%; % ZCL278 (without GEF): 63.125%

Which results are given for `OCN1CCC2N(CO)CCC3N(CO)CCC1N23` (stereo not drawn) [NSC81461]?
% ZCL278 (with GEF): 92.160%; % ZCL278 (without GEF): 15.832%
